Assay results from EP0326331B1, “Substituted quinolines and cinnolines” (Dow AgroSciences LLC, priority 1988, dated 1989).

How the values were obtained:
Format in all cases: in vivo
[1] = tested on: Septoria tritici (leaf blotch); assay: Test 1 greenhouse foliar spray screen, leaf blotch on wheat; details: disease control rating, foliar spray on wheat, 400 ppm (+++ at 100 ppm)
[2] = tested on: Venturia inaequalis (apple scab); assay: Test 1 greenhouse foliar spray screen, apple scab on apple seedling; details: disease control rating, foliar spray on apple seedling, 400 ppm (+++ at 100 ppm)
[3] = tested on: Pseudoperonospora cubensis (downy mildew); assay: Test 1 greenhouse foliar spray screen, downy mildew on squash; details: for DOWN MDEW: disease control rating, foliar spray on squash, 400 ppm (+++ at 100 ppm)
[4] = tested on: corn rootworm; assay: Mite/insect screen, CRW; details: percent mortality; for mortality at 12 ppm: CRW RATE 12.00 PPM; for mortality at 12 ppm / mortality at 24 ppm: read-out: CRW RESULTS %
In short: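 Corn rootworm mortality (%) was evaluated following standard exposure times. Test material was emulsified by dissolution in acetone/alcohol (1:1) containing sulfonate/nonionic emulsifier blends TOXIMUL R (23 g/L) and TOXIMUL S (13 g/L), and water-diluted to the indicated doses.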

[5] = tested on: Pyricularia oryzae (rice blast); assay: whole plant or invertebrate; details: disease control rating, foliar spray on rice, 400 ppm (+++ at 100 ppm)
[6] = tested on: southern armyworm (Spodopetra eridania Cramer); assay: Mite/insect screen, SAW; details: percent mortality, SAW; for mortality at 200 ppm / mortality at 400 ppm: Spodoptera eridania, read-out: SAW RESULTS %; for mortality at 200 ppm: SM & MA RATE 200 PPM
In short: (§1)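 Percent mortality was scored after standard exposure periods, following spraying of leaves to runoff (both surfaces, 10 psi, 1 h drying) with water dilutions of compound in emulsifier-containing acetone/alcohol (50:50). Armyworms received excised treated leaves in dishes.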

[7] = tested on: Twospotted spider mites (Tetranychus urticae Koch); assay: Mite/insect screen, SM; details: percent mortality, SAW; for mortality at 200 ppm / mortality at 400 ppm: Tetranychus urticae, read-out: SM RESULTS %; for mortality at 200 ppm: SM & MA RATE 200 PPM
In short: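 Read-out: percent mortality after standard exposure periods. Test solutions were water dilutions of compound dissolved in acetone/alcohol (50:50) with emulsifier blends; leaves were sprayed to runoff on both surfaces and air-dried for one hour before exposure.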

[8] = tested on: Botrytis cinerea (gray mold); assay: Test 1 greenhouse foliar spray screen, gray mold on grape berries; details: disease control rating, spray on grape berries, 400 ppm (+++ at 100 ppm)
[9] = tested on: Erysiphe graminis tritici (powdery mildew); assay: Test 1 greenhouse foliar spray screen, powdery mildew on wheat; details: disease control rating, foliar spray on wheat, 400 ppm (+++ at 100 ppm)
[10] = tested on: melon aphids (Aphis gossypii Glover); assay: Mite/insect screen, MA; details: percent mortality, SAW; for mortality at 200 ppm / mortality at 400 ppm: Aphis gossypii, read-out: MA RESULTS %; for mortality at 200 ppm: SM & MA RATE 200 PPM
In short: as §1

[11] = tested on: Cercospora beticola (leaf spot); assay: Test 1 greenhouse foliar spray screen, leaf spot on sugar beet; details: disease control rating, foliar spray on sugar beet, 400 ppm (+++ at 100 ppm)
[12] = tested on: Puccinia recondita tritici (leaf rust); assay: Test 1 greenhouse foliar spray screen, leaf rust on wheat; details: disease control rating, foliar spray on wheat, 400 ppm (+++ at 100 ppm)

SMILES | LEAF BLOT [1] | APPL SCAB [2] | DOWN MDEW [3] | mortality at 12 ppm [4] | mortality at 24 ppm ([4]; CRW RATE 24.00 PPM) | RICE BLAST [5] | mortality at 200 ppm [6] | mortality at 400 ppm ([6]; SM & MA RATE 400 PPM) | mortality at 200 ppm [7] | mortality at 400 ppm ([7]; SM & MA RATE 400 PPM) | GRAY MOLD [8] | POWD MDEW [9] | mortality at 200 ppm [10] | mortality at 400 ppm ([10]; SM & MA RATE 400 PPM) | LEAF SPOT [11] | LEAF RUST [12] | other results
Cc1ccc2nccc(NCCc3ccc(Cl)cc3)c2c1 [Example 14, N-[2-(4-chlorophenyl)ethyl]-6-methyl-4-quinolinamine] | - (0-19% control at 400 ppm) | - (0-19% control at 400 ppm) | +++ (90-100% control at 100 ppm) | 0% | 0% | + (20-89% control at 400 ppm) | 0% | 0% | 0% | 0% | - (0-19% control at 400 ppm) | - (0-19% control at 400 ppm) | 0% | 0% | +++ (90-100% control at 100 ppm) | + (20-89% control at 400 ppm) | activity against downy mildew ([3]; summary statement in the description): particularly excellent activity
Cc1cc(C)c2nccc(NCCc3ccc(Cl)cc3)c2c1 [Example 15, N-[2-(4-chlorophenyl)ethyl]-6,8-dimethyl-4-quinolinamine] | - (0-19% control at 400 ppm) | + (20-89% control at 400 ppm) | +++ (90-100% control at 100 ppm) | 0% | 0% | + (20-89% control at 400 ppm) | 0% | 0% | 0% | 0% | - (0-19% control at 400 ppm) | - (0-19% control at 400 ppm) | 0% | 0% | +++ (90-100% control at 100 ppm) | + (20-89% control at 400 ppm) | –
COc1ccc2nccc(NCCc3ccc(Cl)cc3)c2c1 [Example 16, N-[2-(4-chlorophenyl)ethyl]-6-methoxy-4-quinolinamine] | - (0-19% control at 400 ppm) | - (0-19% control at 400 ppm) | +++ (90-100% control at 100 ppm) | 0% | 0% | + (20-89% control at 400 ppm) | 0% | 0% | 0% | 0% | - (0-19% control at 400 ppm) | - (0-19% control at 400 ppm) | 0% | 0% | +++ (90-100% control at 100 ppm) | + (20-89% control at 400 ppm) | –
CC(CNc1ccnc2ccccc12)(c1ccccc1)c1ccccc1 [Example 34, N-(2,2-diphenylpropyl)-4-quinolinamine] | - (0-19% control at 400 ppm) | - (0-19% control at 400 ppm) | +++ (90-100% control at 100 ppm) | 0% | – | + (20-89% control at 400 ppm) | 0% | – | 0% | – | - (0-19% control at 400 ppm) | + (20-89% control at 400 ppm) | 0% | – | + (20-89% control at 400 ppm) | ++ (90-100% control at 400 ppm) | –
Fc1ccc(CCNc2ccnc3ccccc23)cc1 [Example 35, N-[2-(4-fluorophenyl)ethyl]-4-quinolinamine] | - (0-19% control at 400 ppm) | - (0-19% control at 400 ppm) | +++ (90-100% control at 100 ppm) | 0% | – | + (20-89% control at 400 ppm) | 0% | – | 0% | – | - (0-19% control at 400 ppm) | + (20-89% control at 400 ppm) | 0% | – | +++ (90-100% control at 100 ppm) | + (20-89% control at 400 ppm) | –
COc1ccc(CCNc2ccnc3c(F)cccc23)cc1 [Example 36, 8-fluoro-N-[2-(4-methoxyphenyl)ethyl]-4-quinolinamine] | +++ (90-100% control at 100 ppm) | - (0-19% control at 400 ppm) | +++ (90-100% control at 100 ppm) | 0% | 0% | +++ (90-100% control at 100 ppm) | 0% | 0% | 0% | 0% | - (0-19% control at 400 ppm) | + (20-89% control at 400 ppm) | 0% | 0% | +++ (90-100% control at 100 ppm) | +++ (90-100% control at 100 ppm) | CRW RESULTS % ([4]; CRW RATE 24.00 PPM): 0%; SAW RESULTS % ([6]; SM & MA RATE 400 PPM): 0%; SM RESULTS % ([7]; SM & MA RATE 400 PPM): 0%; MA RESULTS % ([10]; SM & MA RATE 400 PPM): 0%
COc1ccc(CCNc2ccnc3c(F)cccc23)cc1OC [Example 38, N-[2-(3,4-dimethoxyphenyl)ethyl]-8-fluoro-4-quinolinamine] | - (0-19% control at 400 ppm) | - (0-19% control at 400 ppm) | +++ (90-100% control at 100 ppm) | 0% | 0% | - (0-19% control at 400 ppm) | 0% | 0% | 0% | 0% | - (0-19% control at 400 ppm) | + (20-89% control at 400 ppm) | 0% | 0% | + (20-89% control at 400 ppm) | ++ (90-100% control at 400 ppm) | –
Fc1cc(F)c2nccc(NCCc3ccc(Cl)cc3)c2c1 [Example 41, N-[2-(4-chlorophenyl)ethyl]-6,8-difluoro-4-quinolinamine] | + (20-89% control at 400 ppm) | - (0-19% control at 400 ppm) | ++ (90-100% control at 400 ppm) | 0% | 0% | ++ (90-100% control at 400 ppm) | 80% | 40% | 0% | 0% | - (0-19% control at 400 ppm) | + (20-89% control at 400 ppm) | 0% | 0% | +++ (90-100% control at 100 ppm) | +++ (90-100% control at 100 ppm) | –
COc1ccc(CCNc2ccnc3cc(C(F)(F)F)ccc23)cc1 [Example 42, N-[2-(4-methoxyphenyl)ethyl]-7-(trifluoromethyl)-4-quinolinamine] | - (0-19% control at 400 ppm) | - (0-19% control at 400 ppm) | +++ (90-100% control at 100 ppm) | 0% | 0% | + (20-89% control at 400 ppm) | 0% | 0% | 0% | 0% | - (0-19% control at 400 ppm) | +++ (90-100% control at 100 ppm) | 0% | 0% | +++ (90-100% control at 100 ppm) | ++ (90-100% control at 400 ppm) | –
COc1cccc(CCNc2ccnc3cc(Cl)ccc23)c1 [Example 43, 7-chloro-N-[2-(3-methoxyphenyl)ethyl]-4-quinolinamine] | - (0-19% control at 400 ppm) | - (0-19% control at 400 ppm) | ++ (90-100% control at 400 ppm) | 0% | 0% | + (20-89% control at 400 ppm) | 0% | 0% | 0% | 0% | - (0-19% control at 400 ppm) | + (20-89% control at 400 ppm) | 0% | 0% | +++ (90-100% control at 100 ppm) | - (0-19% control at 400 ppm) | –
